Laboratory results published in US6692927B2, “Bax degradation involvement in tumor survival and progression” (University of South Florida, priority 2000, dated 2004).
Where a SMILES comes first, the peptide text is derived from it. [ ]: non-standard residue; d: D form. The star is where a group is joined. Nva = CCC[C@H](N)C(=O)O; Cbz = O=C(OCc1ccccc1)*

Assays:
[1] = system: SV40-transformed (VA-13) cells; assay: PARP cleavage, cytochrome c release and Bax accumulation in SV40-transformed fibroblasts; assay type: cell-based, human
Text: (§1) Proteasome inhibitors activate Bax- and cytochrome c-dependent apoptosis pathway preferentially in transformed human fibroblasts. Normal human fibroblasts are more resistant to proteasome inhibitor-induced apoptosis than transformed and cancer cells (An et al., in press). This is probably due to inability of the normal cells to accumulate Bax protein in response to proteasome inhibition, and consequently failure to release cytochrome c. To test this hypothesis, both SV40-transformed and normal WI-38 cells were treated with 50 microM LLnV for up to 24 hours, followed by measurement of PARP cleavage, cytochrome c release and Bax accumulation. […] In contrast, only after 24 hours treatment, low levels of p85/PARP fragment and cytosolic cytochrome c were detected in normal WI-38 cells (FIGS. 1, A, B, lanes 8-14). […] The levels of Bax/p21 were increased at as early as 4 hours and remained high afterwards. […] The level of another band of ˜47 kDa increased at 4 hours, further increased between 6 and 12 hours, and then decreased (FIG. 1C). The p70 and p47 bands can contain ubiquitinated forms of Bax since similar polypeptides were detected by antibodies to both Bax and ubiquitin (Li et al., 1999). […] Therefore, although unable to activate the Bax- and cytochrome c-dependent apoptotic pathway in response to a low concentration of a proteasome inhibitor, normal cells are capable of undergoing Bax- and cytochrome c-independent apoptosis in response to a proteasome inhibitor at higher concentrations.
(§2) SV40-transformed (VA-13) and normal WI-38 cells were treated with 50 microM LLnV or DMSO (letter D) for up to 24 hours, followed by measurement of PARP cleavage (A), cytochrome c release (B) and Bax accumulation (C; also see FIG. 2). Panel D, exponentially grown VA-13 cells were pretreated with 50 microM LLnV or DMSO for 1 hour, washed with methionine-free medium, and then incubated for 30 minutes in methionine-free medium plus 50 microM LLnV (or DMSO). This was followed by replacing fresh methionine-free medium containing 150 microCi/ml of [^35S]-methionine, 10% dialyzed FBS and 50 microM LLnV (or DMSO). Cells were further incubated for 6 hours, followed by preparation of [^35S]-labeled protein lysates and Bax immunoprecipitates (6A7, PharMingen). The labeled Bax bands are indicated. […] Bax-alpha subcloned into pcDNA3 was used for coupled in vitro transcription/translation in the presence of [^35S]methionine. For Bax cleavage assay, the whole cell extracts were prepared. The [^35S]-labeled Bax (0.7 microl) was incubated with 50 microg protein in assay buffer (containing 50 microM LLM and no Ca^2+) for 4 hours at 37° C. Following incubation, the samples were subjected to SDS gel electrophoresis and autoradiography.

normal WI-38 cells = assay: PARP cleavage, cytochrome c release, Bax and p21 in normal fibroblasts; assay type: cell-based, human; settings: 50 microM LLnV
Text: as §1, §2

MCF-7 cells = assay: Bax level and PARP cleavage in MCF-7 cells; assay type: cell-based, human; settings: LLnV
Text: Levels of BDA predict levels of Bax and consequently influence sensitivity of human cancer cells to proteasome inhibitor-induced apoptosis. Basal level of Bax protein in SV40-transformed WI-38 cells (VA13) was several-fold higher than that of human breast cancer MCF-7 cells (FIG. 1E, top panel, lanes 1 vs. 3). This is due to a much lower level of BDA in VA13 cells than in MCF-7 cells (FIG. 1E, lower panel, lanes 1 vs. 3). This conclusion is further confirmed by using increased amounts of protein extracts of each cell line in the cell-free BDA assay (FIG. 4A, top panel). […] In contrast, when MCF-7 cells were treated under the same conditions, Bax levels were not increased; PARP was cleaved only after 24 hours treatment, which is Bax-independent (FIG. 4B, lanes 6-9). Therefore, although highly preliminary, it appears that levels of BDA determine levels of Bax and consequently affect responsiveness of human cancer cells to proteasome inhibition-induced apoptosis.

[2] = system: normal human breast cells MCF-10A; assay: cellular detachment of normal breast cells; assay type: cell-based; settings: 48 hours or even 72 hours
Experimental: Proteasome inhibitors selectively induce apoptosis in human breast cancer, but not normal, cells. […] Cells of both human breast cancer lines became detached in a lactacystin-concentration-dependent manner (FIG. 3). No detachment was induced in the normal human breast cells MCF-10A after treatment with lactacystin for 48 hours (FIG. 3) or even 72 hours. Proteasome inhibition-induced detachment of breast cancer cells is due to apoptosis (An et al., in press).

CCC[C@@H](C=O)NC(=O)[C@H](CC(C)C)NC(=O)[C@H](CC(C)C)NC(=O)OCc1ccccc1 [LLnV] (Cbz-Leu-Leu-[Nva]-aldehyde)
earliest time of increased Bax/p21 levels ([1]; 50 microM LLnV): 4 h | Bax levels ([1]; 50 microM LLnV, prior to release of cytochrome c): dramatically increased | time at which cleavage of PARP and release of cytochrome c were detected ([1]; 50 microM LLnV, up to 24 hours): 8 h | Bax accumulation and apoptosis (PARP cleavage) ([1]; LLnV treatment (FIG. 4B)): rapidly accumulated Bax protein and subsequently induced apoptosis | time at which low levels of p85/PARP fragment and cytosolic cytochrome c were detected (normal WI-38 cells): 24 h | time after which PARP was cleaved (MCF-7 cells; Bax-independent): 24 h | Bax levels (MCF-7 cells; same conditions as VA-13): not increased

CC(=O)N[C@@H](CSC(=O)[C@]1([C@@H](O)C(C)C)NC(=O)[C@H](C)[C@@H]1O)C(=O)O [lactacystin]
cellular detachment [2]: No detachment
